# Organism: Rattus norvegicus
# Assay: DrugMatrix - Regimen: Daily Repeat
# Assay type: toxicity, organism-based, Sprague-Dawley
# Parameters: regimen Daily Repeat, gender Male, age 6-8 weeks
# Details: in vivo, po, route oral GAVAGE, vehicle .5 % CMC; for ABSOLUTE BASOPHIL / ABSOLUTE EOSINOPHIL / ABSOLUTE LYMPHOCYTE / ABSOLUTE MONOCYTE / ABSOLUTE SEGMENTED NEUTROPHIL / BASOPHIL / EOSINOPHIL / ERYTHROCYTE COUNT / HEMATOCRIT / HEMOGLOBIN / LEUKOCYTE COUNT / LYMPHOCYTE / MEAN CORPUSCULAR HEMOGLOBIN / MEAN CORPUSCULAR HEMOGLOBIN CONCENTRATION / MEAN CORPUSCULAR VOLUME / MONOCYTE / NEUTROPHIL / NUCLEATED RED BLOOD CELLS / PLATELET COUNT: tissue Blood; for ALANINE AMINOTRANSFERASE / ALBUMIN / ALKALINE PHOSPHATASE / ASPARTATE AMINOTRANSFERASE / BLOOD UREA NITROGEN / CARBON DIOXIDE / CHLORIDE / CHOLESTEROL / CREATINE PHOSPHOKINASE / CREATININE / GLUCOSE / LACTATE DEHYDROGENASE / LIPASE / PHOSPHORUS / POTASSIUM / SODIUM / TOTAL BILIRUBIN / TOTAL PROTEIN / URIC ACID: tissue Plasma
# [1] = 0 mg/kg, 72 h, dose level Control, time 3 day
# [2] = 0 mg/kg, 120 h, dose level Control, time 5 day
# [3] = 100 mg/kg, 72 h, dose level Low, time 3 day
compound,measurement,setting,value
Cl.NC[C@H]1CC[C@H](C(=O)Oc2ccc(CCC(=O)O)cc2)CC1 [CETRAXATE HYDROCHLORIDE],ABSOLUTE BASOPHIL,[1],0 CELLS/uL
same,ABSOLUTE EOSINOPHIL,[1],284.5 CELLS/uL
same,ABSOLUTE LYMPHOCYTE,[1],11670.5 CELLS/uL
same,ABSOLUTE MONOCYTE,[1],420.83 CELLS/uL
same,ABSOLUTE SEGMENTED NEUTROPHIL,[1],1024.17 CELLS/uL
same,BASOPHIL,[1],0%
same,EOSINOPHIL,[1],1.67%
same,ERYTHROCYTE COUNT,[1],5.38 x10E6/uL
same,HEMATOCRIT,[1],34.05%
same,HEMOGLOBIN,[1],12.75 G/DL
same,LEUKOCYTE COUNT,[1],13.4 x10E3/uL
same,LYMPHOCYTE,[1],88.33%
same,MEAN CORPUSCULAR HEMOGLOBIN,[1],23.73 pg
same,MEAN CORPUSCULAR HEMOGLOBIN CONCENTRATION,[1],37.43 G/DL
same,MEAN CORPUSCULAR VOLUME,[1],63.4 fL
same,MONOCYTE,[1],2.83%
same,NEUTROPHIL,[1],7.17%
same,NUCLEATED RED BLOOD CELLS,[1],0 /100WBC
same,PLATELET COUNT,[1],1184.67 x10E3/uL
same,ALANINE AMINOTRANSFERASE,[1],45.33 u/L
same,ALBUMIN,[1],4.3 G/DL
same,ALKALINE PHOSPHATASE,[1],388.83 u/L
same,ASPARTATE AMINOTRANSFERASE,[1],84.83 u/L
same,BLOOD UREA NITROGEN,[1],15.5 mg/dL
same,CARBON DIOXIDE,[1],27 mmol/L
same,CHLORIDE,[1],101.8 MEQ/L
same,CHOLESTEROL,[1],76.67 mg/dL
same,CREATINE PHOSPHOKINASE,[1],301 u/L
same,CREATININE,[1],0.21 mg/dL
same,GLUCOSE,[1],168.83 mg/dL
same,LACTATE DEHYDROGENASE,[1],294.83 u/L
same,LIPASE,[1],9.8 u/L
same,PHOSPHORUS,[1],13.25 mg/dL
same,POTASSIUM,[1],6.41 MEQ/L
same,SODIUM,[1],143.72 MEQ/L
same,TOTAL BILIRUBIN,[1],0.22 mg/dL
same,TOTAL PROTEIN,[1],5.98 G/DL
same,URIC ACID,[1],1.5 mg/dL
same,ABSOLUTE BASOPHIL,[2],0 CELLS/uL
same,ABSOLUTE EOSINOPHIL,[2],190.67 CELLS/uL
same,ABSOLUTE LYMPHOCYTE,[2],12549.5 CELLS/uL
same,ABSOLUTE MONOCYTE,[2],276 CELLS/uL
same,ABSOLUTE SEGMENTED NEUTROPHIL,[2],1067.17 CELLS/uL
same,BASOPHIL,[2],0%
same,EOSINOPHIL,[2],1.33%
same,ERYTHROCYTE COUNT,[2],5.66 x10E6/uL
same,HEMATOCRIT,[2],35.92%
same,HEMOGLOBIN,[2],13.65 G/DL
same,LEUKOCYTE COUNT,[2],14.08 x10E3/uL
same,LYMPHOCYTE,[2],89%
same,MEAN CORPUSCULAR HEMOGLOBIN,[2],24.12 pg
same,MEAN CORPUSCULAR HEMOGLOBIN CONCENTRATION,[2],38.03 G/DL
same,MEAN CORPUSCULAR VOLUME,[2],63.47 fL
same,MONOCYTE,[2],2%
same,NEUTROPHIL,[2],7.67%
same,NUCLEATED RED BLOOD CELLS,[2],0.17 /100WBC
same,PLATELET COUNT,[2],1251.67 x10E3/uL
same,ALANINE AMINOTRANSFERASE,[2],43.33 u/L
same,ALBUMIN,[2],4.22 G/DL
same,ALKALINE PHOSPHATASE,[2],365.67 u/L
same,ASPARTATE AMINOTRANSFERASE,[2],83.67 u/L
same,BLOOD UREA NITROGEN,[2],18.17 mg/dL
same,CARBON DIOXIDE,[2],28.67 mmol/L
same,CHLORIDE,[2],103.5 MEQ/L
same,CHOLESTEROL,[2],71.5 mg/dL
same,CREATINE PHOSPHOKINASE,[2],284.5 u/L
same,CREATININE,[2],0.21 mg/dL
same,GLUCOSE,[2],161.67 mg/dL
same,LACTATE DEHYDROGENASE,[2],259.67 u/L
same,LIPASE,[2],9.5 u/L
same,PHOSPHORUS,[2],12.45 mg/dL
same,POTASSIUM,[2],6.49 MEQ/L
same,SODIUM,[2],144.25 MEQ/L
same,TOTAL BILIRUBIN,[2],0.2 mg/dL
same,TOTAL PROTEIN,[2],6.1 G/DL
same,URIC ACID,[2],1.73 mg/dL
same,ABSOLUTE BASOPHIL,[3],0 CELLS/uL
same,ABSOLUTE EOSINOPHIL,[3],0 CELLS/uL
same,ABSOLUTE LYMPHOCYTE,[3],4748 CELLS/uL
same,ABSOLUTE MONOCYTE,[3],119.67 CELLS/uL
same,ABSOLUTE SEGMENTED NEUTROPHIL,[3],265.67 CELLS/uL
same,BASOPHIL,[3],0%
same,EOSINOPHIL,[3],0%
same,ERYTHROCYTE COUNT,[3],5.52 x10E6/uL
same,HEMATOCRIT,[3],36.1%
same,HEMOGLOBIN,[3],13.33 G/DL
same,LEUKOCYTE COUNT,[3],5.13 x10E3/uL
same,LYMPHOCYTE,[3],92.67%
same,MEAN CORPUSCULAR HEMOGLOBIN,[3],24.2 pg
same,MEAN CORPUSCULAR HEMOGLOBIN CONCENTRATION,[3],36.97 G/DL
same,MEAN CORPUSCULAR VOLUME,[3],65.43 fL
same,MONOCYTE,[3],2.33%
same,NEUTROPHIL,[3],5%
same,NUCLEATED RED BLOOD CELLS,[3],0 /100WBC
same,PLATELET COUNT,[3],1331 x10E3/uL
same,ALANINE AMINOTRANSFERASE,[3],33.33 u/L
same,ALBUMIN,[3],4.63 G/DL
same,ALKALINE PHOSPHATASE,[3],363 u/L
same,ASPARTATE AMINOTRANSFERASE,[3],79 u/L
same,BLOOD UREA NITROGEN,[3],15 mg/dL
same,CARBON DIOXIDE,[3],25 mmol/L
same,CHLORIDE,[3],104 MEQ/L
same,CHOLESTEROL,[3],87.33 mg/dL
same,CREATINE PHOSPHOKINASE,[3],255.33 u/L
same,CREATININE,[3],0.17 mg/dL
same,GLUCOSE,[3],163.33 mg/dL
same,LACTATE DEHYDROGENASE,[3],159.67 u/L
same,LIPASE,[3],10 u/L
same,PHOSPHORUS,[3],12.2 mg/dL
same,POTASSIUM,[3],6 MEQ/L
same,SODIUM,[3],147 MEQ/L
same,TOTAL BILIRUBIN,[3],0.13 mg/dL
same,TOTAL PROTEIN,[3],6.57 G/DL
same,URIC ACID,[3],1.6 mg/dL

# Source: ChEMBL document CHEMBL3885881, “DrugMatrix”
